Assay [1] deals with T1, human calcitonin (a) receptor in BHK570 cells (Homo sapiens, UniProt P30988).
T1 construct: expressed in transfected cells
T1 sequence (P30988 25-474): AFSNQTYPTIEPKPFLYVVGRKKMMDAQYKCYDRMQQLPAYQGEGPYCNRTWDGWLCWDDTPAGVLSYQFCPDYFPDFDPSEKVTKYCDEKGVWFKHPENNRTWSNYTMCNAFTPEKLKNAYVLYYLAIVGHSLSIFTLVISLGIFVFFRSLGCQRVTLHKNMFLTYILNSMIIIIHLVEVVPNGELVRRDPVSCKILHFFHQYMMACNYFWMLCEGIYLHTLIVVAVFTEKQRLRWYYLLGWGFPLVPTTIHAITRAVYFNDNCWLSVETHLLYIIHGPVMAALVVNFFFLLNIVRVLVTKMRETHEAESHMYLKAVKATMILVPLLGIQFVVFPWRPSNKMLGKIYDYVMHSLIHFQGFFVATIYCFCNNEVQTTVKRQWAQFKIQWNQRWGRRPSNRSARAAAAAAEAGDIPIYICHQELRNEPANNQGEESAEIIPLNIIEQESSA
The experiment in a line: ASSAY (II)a functional assay, human calcitonin receptor (CRE luciferase). It is filed as cell-based. The following applies: read-out: hCTR funct. EC50. Put shortly: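 BHK CRE-luc cells, calcitonin (a) receptor ± RAMP-3 (amylin 3(a)); overnight seeding, 37° C/5% CO2. 3 h ligand exposure, DMEM/10% FBS/10 mM Hepes pH 7.4. LucLite 30 min RT; luminescence (SPC).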

The target in assay [2] is T2, rat amylin receptor (rat calcitonin receptor + rat RAMP 3) (Rattus norvegicus, UniProt P32214+Q9JJ73).
T2 construct: expressed in transfected cells; host or cells: BHK tk'ts 13 (transient, FuGENE 6), membranes
T2 sequence (P32214 25-479 isoform P32214-2 limits assumed): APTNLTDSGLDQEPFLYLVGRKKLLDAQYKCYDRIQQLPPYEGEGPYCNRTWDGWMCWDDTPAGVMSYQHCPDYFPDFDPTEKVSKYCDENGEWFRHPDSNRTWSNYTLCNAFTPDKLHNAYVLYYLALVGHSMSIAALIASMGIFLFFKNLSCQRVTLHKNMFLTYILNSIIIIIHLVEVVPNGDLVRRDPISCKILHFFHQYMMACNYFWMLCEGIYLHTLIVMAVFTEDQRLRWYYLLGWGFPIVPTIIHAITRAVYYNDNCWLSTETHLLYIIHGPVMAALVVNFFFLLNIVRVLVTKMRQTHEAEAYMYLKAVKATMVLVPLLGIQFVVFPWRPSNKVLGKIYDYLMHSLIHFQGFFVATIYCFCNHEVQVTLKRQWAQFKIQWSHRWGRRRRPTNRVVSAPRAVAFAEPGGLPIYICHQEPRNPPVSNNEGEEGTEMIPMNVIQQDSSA
T2 sequence (Q9JJ73 23-147 partner): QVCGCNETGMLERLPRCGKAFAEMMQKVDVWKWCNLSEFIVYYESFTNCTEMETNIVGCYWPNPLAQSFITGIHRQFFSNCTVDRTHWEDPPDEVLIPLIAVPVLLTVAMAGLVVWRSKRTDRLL
The experiment in a line: ASSAY (VI) binding to the rat amylin receptor. Particulars: for IC50: binding to rat amylin receptor, read-out: rAmylin-R bind IC50. Summed up:
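This assay measured binding to the rat amylin receptor. BHK tk′ts 13 cells were transiently transfected with the rat calcitonin receptor using FuGENE® 6 (Roche), following the manufacturer's recommendations. About 48 hours after transfection, the cells were harvested and membranes were prepared from them for the binding determination.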

Assay [3] has as its target T3, human calcitonin receptor (Homo sapiens, UniProt P30988).
T3 construct: expressed in transfected cells
T3 sequence (P30988 25-474): T1 sequence (P30988 25-474)
The experiment in a line: ASSAY (VII) binding to the human calcitonin receptor (SPA, 125I-Calcitonin).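 Further: cell membranes (35 ng/µL) combined with SPA beads in 40 µL of pH 7.4 Hepes buffer, 384-well format, signal counted on a TopCounter instrument.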 Particulars: read-out: hCTR bind IC50.

Setting [4] is: Table 7, rat binding selectivity, rCTR IC50 / rAmylin-R IC50.
[5] abbreviates: Table 7a (preferred compounds), rat binding selectivity, rCTR IC50 / rAmylin-R IC50.
[6] abbreviates: ratio of rCTR bind IC50 to rAmylin-R bind IC50.

Numbered stars: 1 amine (or outer) side, 2 acyl side, 3 side chain; on linkers, the order of the positions; unused ones are H or OH. Bridge positions count the residues as written; N and C are the ends. Side chains are listed from the residue outwards. Peptide text beside a SMILES is read from it. * marks the point of attachment. C20 diacid = O=C(O)CCCCCCCCCCCCCCCCCCC(=O)*; γGlu = O=C(O)[C@H](CCC(=O)[*:2])N[*:1]; AEEA = NCCOCCOCC(=O)O

For the compound `CC[C@H](C)[C@H](NC(=O)[C@H](C)NC(=O)CNC(=O)[C@H](Cc1ccccc1)NC(=O)[C@H](CC(N)=O)NC(=O)[C@@H]1CCCN1C(=O)[C@H](CO)NC(=O)[C@H](CO)NC(=O)[C@H](Cc1c[nH]cn1)NC(=O)[C@H](CCCNC(=N)N)NC(=O)[C@H](CC(C)C)NC(=O)[C@H](Cc1ccccc1)NC(=O)[C@H](CO)NC(=O)[C@H](C)NC(=O)[C@H](CC(C)C)NC(=O)[C@H](CCCNC(=N)N)NC(=O)[C@H](CCC(N)=O)NC(=O)[C@@H](NC(=O)[C@H](C)NC(=O)[C@@H]1CSSC[C@H](NC(=O)[C@@H](N)CCCCNC(=O)CC[C@H](NC(=O)CC[C@H](NC(=O)CCCCCCCCCCCCCCCCCCC(=O)O)C(=O)O)C(=O)O)C(=O)N[C@@H](CC(N)=O)C(=O)N[C@@H]([C@@H](C)O)C(=O)N[C@@H](C)C(=O)N[C@@H]([C@@H](C)O)C(=O)N1)[C@@H](C)O)C(=O)N1CCC[C@H]1C(=O)N[C@@H](CO)C(=O)N[C@@H](CO)C(=O)N[C@H](C(=O)N[C@@H](CC(N)=O)C(=O)N[C@H](C(=O)NCC(=O)N1CCC[C@H]1C(=O)N[C@@H](CCC(=O)O)C(=O)N[C@H](C(=O)N[C@@H](Cc1ccc(O)cc1)C(N)=O)[C@@H](C)O)C(C)C)[C@@H](C)O` [Example 120] (H-K([γGlu-γGlu-C20 diacid])CNTATCATQRLASFLRHSSPNFGAIPSSTNVGPETY-NH2; disulfide 2-7 (inferred); N-terminus assumed), the EC50 in assay [1] is 0.887 nM. The IC50 is 0.161 nM in assay [2] (Table 7) and 3.44 nM in assay [3]. Moreover, the “Ratio rCT/rAmylin binding” value in assay [2] (setting [4]), in assay [2] (setting [5]) and in assay [2] (setting [6]) was 867.7 in each case.
On to `CC[C@H](C)[C@H](NC(=O)[C@H](C)NC(=O)CNC(=O)[C@H](Cc1ccccc1)NC(=O)[C@H](CC(N)=O)NC(=O)[C@@H]1CCCN1C(=O)[C@H](CO)NC(=O)[C@H](CO)NC(=O)[C@H](Cc1c[nH]cn1)NC(=O)[C@H](CCCNC(=N)N)NC(=O)[C@H](CC(C)C)NC(=O)[C@H](Cc1ccccc1)NC(=O)[C@H](Cc1c[nH]cn1)NC(=O)[C@H](C)NC(=O)[C@H](CC(C)C)NC(=O)[C@H](CCCNC(=N)N)NC(=O)[C@H](CCC(N)=O)NC(=O)[C@@H](NC(=O)[C@H](C)NC(=O)[C@@H]1CSSC[C@H](NC(=O)[C@@H](N)CCCCNC(=O)COCCOCCNC(=O)CC[C@H](NC(=O)CCCCCCCCCCCCCCCCCCC(=O)O)C(=O)O)C(=O)N[C@@H](CC(N)=O)C(=O)N[C@@H]([C@@H](C)O)C(=O)N[C@@H](C)C(=O)N[C@@H]([C@@H](C)O)C(=O)N1)[C@@H](C)O)C(=O)N1CCC[C@H]1C(=O)N[C@@H](CO)C(=O)N[C@@H](CO)C(=O)N[C@H](C(=O)N[C@@H](CC(N)=O)C(=O)N[C@H](C(=O)NCC(=O)N[C@@H](Cc1c[nH]cn1)C(=O)N[C@@H](CC(N)=O)C(=O)N[C@H](C(=O)N[C@@H](Cc1ccc(O)cc1)C(N)=O)[C@@H](C)O)C(C)C)[C@@H](C)O` [Example 80] (H-K([AEEA-γGlu-C20 diacid])CNTATCATQRLAHFLRHSSPNFGAIPSSTNVGHNTY-NH2; disulfide 2-7; N-terminus assumed), for which, in assay [1], the EC50 stood at 2.14 nM. For the same compound, the IC50 in assay [2] (Table 7) came to 1.67 nM; in assay [3] it was 19.8 nM. In addition, the “Ratio rCT/rAmylin binding” value in assay [2] (setting [4]), in assay [2] (setting [5]) and in assay [2] (setting [6]) was 36.2 in each case.
On to `CC[C@H](C)[C@H](NC(=O)[C@H](C)NC(=O)CNC(=O)[C@H](Cc1ccccc1)NC(=O)[C@H](CC(N)=O)NC(=O)[C@@H]1CCCN1C(=O)[C@H](CO)NC(=O)[C@H](CO)NC(=O)[C@H](Cc1c[nH]cn1)NC(=O)[C@H](CCCNC(=N)N)NC(=O)[C@H](CC(C)C)NC(=O)[C@H](Cc1ccccc1)NC(=O)[C@H](CCC(=O)O)NC(=O)[C@H](C)NC(=O)[C@H](CC(C)C)NC(=O)[C@H](CCCNC(=N)N)NC(=O)[C@H](CCC(N)=O)NC(=O)[C@@H](NC(=O)[C@H](C)NC(=O)[C@@H]1CSSC[C@H](NC(=O)[C@H](CCCCN)NC(=O)CC[C@H](NC(=O)CCCCCCCCCCCCCCCCCCC(=O)O)C(=O)O)C(=O)N[C@@H](CC(N)=O)C(=O)N[C@@H]([C@@H](C)O)C(=O)N[C@@H](C)C(=O)N[C@@H]([C@@H](C)O)C(=O)N1)[C@@H](C)O)C(=O)N1CCC[C@H]1C(=O)N[C@@H](CO)C(=O)N1CCC[C@H]1C(=O)N[C@H](C(=O)N[C@@H](CC(N)=O)C(=O)N[C@H](C(=O)NCC(=O)N[C@@H](CO)C(=O)N[C@@H](CC(N)=O)C(=O)N[C@H](C(=O)N[C@@H](Cc1ccc(O)cc1)C(N)=O)[C@@H](C)O)C(C)C)[C@@H](C)O` [Example 37] ({C20 diacid-γGlu}-KCNTATCATQRLAEFLRHSSPNFGAIPSPTNVGSNTY-NH2; disulfide 2-7 (inferred)), for which the EC50 in assay [1] amounted to 0.372 nM. Besides, the IC50 in assay [2] (Table 7) came out at 0.514 nM; in assay [3] it was 2.18 nM. Moreover, the “Ratio rCT/rAmylin binding” value in assay [2] (setting [4]) and in assay [2] (setting [5]) was 14.3 in each case.
With `CC[C@H](C)[C@H](NC(=O)[C@H](C)NC(=O)CNC(=O)[C@H](Cc1ccccc1)NC(=O)[C@H](CC(N)=O)NC(=O)[C@@H]1CCCN1C(=O)[C@H](CO)NC(=O)[C@H](CO)NC(=O)[C@H](Cc1c[nH]cn1)NC(=O)[C@H](CCCNC(=N)N)NC(=O)[C@H](CC(C)C)NC(=O)[C@H](Cc1ccccc1)NC(=O)[C@H](CC(=O)O)NC(=O)[C@H](C)NC(=O)[C@H](CC(C)C)NC(=O)[C@H](CCCNC(=N)N)NC(=O)[C@H](CCC(N)=O)NC(=O)[C@@H](NC(=O)[C@H](C)NC(=O)[C@@H]1CSSC[C@H](NC(=O)[C@@H](N)CCCCNC(=O)CC[C@H](NC(=O)CCCCCCCCCCCCCCCCCCC(=O)O)C(=O)O)C(=O)N[C@@H](CC(N)=O)C(=O)N[C@@H]([C@@H](C)O)C(=O)N[C@@H](C)C(=O)N[C@@H]([C@@H](C)O)C(=O)N1)[C@@H](C)O)C(=O)N1CCC[C@H]1C(=O)N[C@@H](CO)C(=O)N[C@@H](CO)C(=O)N[C@H](C(=O)N[C@@H](CC(N)=O)C(=O)N[C@H](C(=O)NCC(=O)N1CCC[C@H]1C(=O)N[C@@H](CCCNC(=N)N)C(=O)N[C@H](C(=O)N[C@@H](Cc1ccc(O)cc1)C(N)=O)[C@@H](C)O)C(C)C)[C@@H](C)O` [Example 129] (H-K([γGlu-C20 diacid])CNTATCATQRLADFLRHSSPNFGAIPSSTNVGPRTY-NH2; disulfide 2-7 (inferred); N-terminus assumed), in assay [1], the 50% effective concentration (EC50) stood at 3.64 nM. The half-inhibitory concentration (IC50) was found to be 0.504 nM in assay [2] (Table 7) and 42.5 nM in assay [3]. Moreover, the “Ratio rCT/rAmylin binding” value in assay [2] (setting [4]), in assay [2] (setting [5]) and in assay [2] (setting [6]) was 116.0 in each case.
Consider `CC[C@H](C)[C@H](NC(=O)[C@H](C)NC(=O)CNC(=O)[C@H](Cc1ccccc1)NC(=O)[C@H](CC(N)=O)NC(=O)[C@@H]1CCCN1C(=O)[C@H](CO)NC(=O)[C@H](CO)NC(=O)[C@H](Cc1c[nH]cn1)NC(=O)[C@H](CCCNC(=N)N)NC(=O)[C@H](CC(C)C)NC(=O)[C@H](Cc1ccccc1)NC(=O)[C@H](CCC(=O)O)NC(=O)[C@H](C)NC(=O)[C@H](CC(C)C)NC(=O)[C@H](CCCNC(=N)N)NC(=O)[C@H](CCC(N)=O)NC(=O)[C@@H](NC(=O)[C@H](C)NC(=O)[C@@H]1CSSC[C@H](NC(=O)[C@H](CCCCN)NC(=O)CC[C@H](NC(=O)CCCCCCCCCCCCCCCCCCC(=O)O)C(=O)O)C(=O)N[C@@H](CC(N)=O)C(=O)N[C@@H]([C@@H](C)O)C(=O)N[C@@H](C)C(=O)N[C@@H]([C@@H](C)O)C(=O)N1)[C@@H](C)O)C(=O)N1CCC[C@H]1C(=O)N[C@@H](CO)C(=O)N[C@@H](CO)C(=O)N[C@H](C(=O)N[C@@H](CC(N)=O)C(=O)N[C@H](C(=O)NCC(=O)N[C@@H](Cc1c[nH]cn1)C(=O)N[C@@H](CC(N)=O)C(=O)N[C@H](C(=O)N[C@@H](Cc1ccc(O)cc1)C(N)=O)[C@@H](C)O)C(C)C)[C@@H](C)O` [Example 17] ({C20 diacid-γGlu}-KCNTATCATQRLAEFLRHSSPNFGAIPSSTNVGHNTY-NH2; disulfide 2-7 (inferred)), for which the 50% effective concentration (EC50) in assay [1] amounted to 2.35 nM. The figures for the IC50 in assay [2] (Table 7) and in assay [3] were 2.71 nM and 10.9 nM, respectively. Moreover, the “Ratio rCT/rAmylin binding” value in assay [2] (setting [4]), in assay [2] (setting [5]) and in assay [2] (setting [6]) was 35.9 in each case.

The term EC50 denotes the concentration that produces a half-maximal response. As usually defined, the IC50 is the concentration needed to halve the response being measured.

The record behind these values is patent publication US9023789B2, “Amylin analogs and pharmaceutical compositions thereof” (Novo Nordisk A/S, priority 2012, dated 2015).
